Data published in patent US7591979B2 (priority 2003, dated 2009).
Where “and” joins values, the source holds several entries; their conditions need not be identical. Equal entries are not always repeated.

Test system: naturally-occurring algae from water samples of the Clinch River
Assay type: cell-based, naturally occurring freshwater algae

Structure (SMILES): COP(=S)(OC)Oc1ccc([N+](=O)[O-])cc1 [MPt, Methyl Parathion]
- Percentage (%) decrease in photochemical yield: −5.41% and −7.80% and −3.19%
